Series [1] addresses T1, Metabotropic glutamate receptor 7 (Homo sapiens, UniProt Q14831). Description: Agonist activity at mGlu7 (unknown origin).
Series [2] addresses Metabotropic glutamate receptor 2 (Homo sapiens, UniProt Q14416). Description: Allosteric activity at mGlu2 (unknown origin).
For series [3], the target named is Metabotropic glutamate receptor 1 (Homo sapiens, UniProt Q13255). As to the kind of experiment: Allosteric activity at mGlu1 (unknown origin).
Series [4] can be described thus: […], Kp in mouse at 10 mg/kg, ip after 1 hr. It is filed as ADME, organism-based. To be noted: in vivo.
Series [5] has as its target Metabotropic glutamate receptor 6 (Homo sapiens, UniProt O15303). As to the kind of experiment: Allosteric activity at mGlu6 (unknown origin).
Series [6] deals with T2, Metabotropic glutamate receptor 5 (Homo sapiens, UniProt P41594). As to the kind of experiment: Allosteric activity at mGlu5 (unknown origin).
For series [7], the target named is T3, Metabotropic glutamate receptor 3 (Homo sapiens, UniProt Q14832). As to the kind of experiment: Allosteric activity at mGlu3 (unknown origin).
The target of series [8] is T1, Metabotropic glutamate receptor 7. Description: Negative allosteric modulator activity at human mGlu7 assessed as reduction in Ca2+ mobilization by HTS assay. Type of series: functional. In general terms: Calcium flux is commonly read through the fluorescence of an indicator in the cells.
Series [9] concerns the target T2, Metabotropic glutamate receptor 5. As to the kind of experiment: Allosteric agonist activity at human mGlu5 expressed in CHO cells assessed as reduction in forskolin-induced cAMP production after 30 mins by cAMP reagent-based assay. It is filed as functional, cell-based. In general terms: Cyclic AMP is a second messenger, typically raised through Gs and lowered through Gi signalling.

In series [10] the target is T3, Metabotropic glutamate receptor 3. As to the kind of experiment: Allosteric agonist activity at human mGlu3 expressed in CHO cells assessed as reduction in forskolin-induced cAMP production after 30 mins by cAMP reagent-based assay. Type of series: functional, cell-based.
Series [11] has as its target Metabotropic glutamate receptor 8 (Rattus norvegicus, UniProt P70579). As to the kind of experiment: Agonist activity at rat mGlu8 receptor expressed in HEK cell co-expressing Galpha15 (unknown origin) assessed as […] intracellular Ca2+ mobilization by Fluo-4-AM dye based fluorescence assay. Type of series: functional.
In series [12] the target is Metabotropic glutamate receptor 7 (Mus musculus, UniProt Q68ED2). Description: Agonist activity at mouse mGlu7.
Series [13] deals with T1, Metabotropic glutamate receptor 7. As to the kind of experiment: Agonist activity at human mGlu7.
The target is the same in series [14]. Description: Allosteric agonist activity at human mGlu7 expressed in CHO cells assessed as reduction in forskolin-induced cAMP production after 30 mins by cAMP reagent-based assay relative to control. It is filed as functional, cell-based.
Series [15] can be described thus: Lipophilicity, logP of the compound. Type of series: physicochemical. To be noted: octanol/water.
In series [16] the target is T1, Metabotropic glutamate receptor 7. As to the kind of experiment: Allosteric agonist activity at human mGlu7 expressed in CHO cells assessed as reduction in forskolin-induced cAMP production after 30 mins by cAMP reagent-based assay. It is filed as functional, cell-based.
In series [17] the target is Metabotropic glutamate receptor 4 (Homo sapiens, UniProt Q14833). Description: Agonist activity at mGlu4 (unknown origin).
The target of series [18] is T1, Metabotropic glutamate receptor 7. Description: Agonist activity at human mGlu7 expressed in CHO cells assessed as reduction in forskolin-induced cAMP production. Type of series: functional, cell-based.

This note sets out measurements from ChEMBL document CHEMBL4368890, “Progress toward allosteric ligands of metabotropic glutamate 7 (mGlu7) receptor: 2008-present” (Medchemcomm, 2019).

What is called EC50 is the concentration at which the effect is half-maximal. Broadly, the IC50 is the concentration needed to halve the response being measured. A word on the pEC50: it is the negative decadic logarithm of the EC50, by convention in mol/L. A word on the Emax: it is the greatest response seen or fitted, relative to the assay's reference. In general, logP refers to the decadic logarithm of the partition coefficient of the neutral form, usually between octanol and water.

T3 sequence (Q14832 whole entry): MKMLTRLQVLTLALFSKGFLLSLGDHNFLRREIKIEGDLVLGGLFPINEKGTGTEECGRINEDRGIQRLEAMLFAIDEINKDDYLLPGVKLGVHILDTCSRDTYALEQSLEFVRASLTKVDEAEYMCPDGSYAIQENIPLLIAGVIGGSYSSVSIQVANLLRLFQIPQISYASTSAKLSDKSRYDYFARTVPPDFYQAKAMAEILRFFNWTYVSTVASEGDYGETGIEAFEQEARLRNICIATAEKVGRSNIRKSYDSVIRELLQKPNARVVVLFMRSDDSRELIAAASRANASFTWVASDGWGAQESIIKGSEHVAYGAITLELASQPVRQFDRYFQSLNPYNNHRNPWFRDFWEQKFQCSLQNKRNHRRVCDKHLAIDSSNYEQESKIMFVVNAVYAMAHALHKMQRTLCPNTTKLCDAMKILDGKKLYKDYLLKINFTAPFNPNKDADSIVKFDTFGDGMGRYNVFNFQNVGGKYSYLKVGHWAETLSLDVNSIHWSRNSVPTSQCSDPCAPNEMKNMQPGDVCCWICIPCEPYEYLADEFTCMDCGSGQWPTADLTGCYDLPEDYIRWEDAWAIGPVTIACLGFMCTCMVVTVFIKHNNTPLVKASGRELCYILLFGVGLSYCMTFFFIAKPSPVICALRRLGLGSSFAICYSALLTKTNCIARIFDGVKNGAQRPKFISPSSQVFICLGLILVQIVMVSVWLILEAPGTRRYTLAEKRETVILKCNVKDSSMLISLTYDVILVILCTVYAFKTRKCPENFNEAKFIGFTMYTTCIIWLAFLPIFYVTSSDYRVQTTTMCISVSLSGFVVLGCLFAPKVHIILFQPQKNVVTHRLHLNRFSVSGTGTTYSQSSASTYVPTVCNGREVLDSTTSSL
T2 sequence (P41594 whole entry): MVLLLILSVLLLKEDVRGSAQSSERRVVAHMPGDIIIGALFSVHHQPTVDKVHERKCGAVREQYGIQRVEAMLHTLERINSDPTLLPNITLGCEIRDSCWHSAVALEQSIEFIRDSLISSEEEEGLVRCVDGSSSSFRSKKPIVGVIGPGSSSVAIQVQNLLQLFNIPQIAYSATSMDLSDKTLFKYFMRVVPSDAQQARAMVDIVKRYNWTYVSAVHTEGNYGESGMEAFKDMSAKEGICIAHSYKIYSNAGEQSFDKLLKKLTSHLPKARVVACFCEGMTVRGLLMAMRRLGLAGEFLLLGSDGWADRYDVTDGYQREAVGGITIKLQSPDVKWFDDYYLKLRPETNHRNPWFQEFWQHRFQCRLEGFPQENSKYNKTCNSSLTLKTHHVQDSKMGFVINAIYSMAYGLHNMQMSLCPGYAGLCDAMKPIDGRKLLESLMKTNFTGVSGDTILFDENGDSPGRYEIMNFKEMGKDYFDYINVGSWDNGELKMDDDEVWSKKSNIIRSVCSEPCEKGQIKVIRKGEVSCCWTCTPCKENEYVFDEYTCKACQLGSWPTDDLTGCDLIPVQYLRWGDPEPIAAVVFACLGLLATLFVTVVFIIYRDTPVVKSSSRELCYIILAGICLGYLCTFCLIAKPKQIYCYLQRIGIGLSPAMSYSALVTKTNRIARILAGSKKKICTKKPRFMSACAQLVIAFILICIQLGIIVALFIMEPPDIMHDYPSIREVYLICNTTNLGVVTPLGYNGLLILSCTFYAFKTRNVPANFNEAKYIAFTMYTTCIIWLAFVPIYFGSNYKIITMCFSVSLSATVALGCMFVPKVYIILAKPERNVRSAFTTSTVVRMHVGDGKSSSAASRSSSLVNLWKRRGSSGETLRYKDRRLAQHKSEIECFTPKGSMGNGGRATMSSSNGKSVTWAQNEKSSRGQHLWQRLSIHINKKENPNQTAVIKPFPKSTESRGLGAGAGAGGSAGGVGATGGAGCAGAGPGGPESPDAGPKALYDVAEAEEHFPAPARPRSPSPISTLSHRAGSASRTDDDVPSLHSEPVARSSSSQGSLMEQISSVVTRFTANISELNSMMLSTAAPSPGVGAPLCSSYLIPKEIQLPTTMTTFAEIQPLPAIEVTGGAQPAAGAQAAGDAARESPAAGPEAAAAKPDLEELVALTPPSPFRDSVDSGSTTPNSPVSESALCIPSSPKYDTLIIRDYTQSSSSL
T1 sequence (Q14831 whole entry): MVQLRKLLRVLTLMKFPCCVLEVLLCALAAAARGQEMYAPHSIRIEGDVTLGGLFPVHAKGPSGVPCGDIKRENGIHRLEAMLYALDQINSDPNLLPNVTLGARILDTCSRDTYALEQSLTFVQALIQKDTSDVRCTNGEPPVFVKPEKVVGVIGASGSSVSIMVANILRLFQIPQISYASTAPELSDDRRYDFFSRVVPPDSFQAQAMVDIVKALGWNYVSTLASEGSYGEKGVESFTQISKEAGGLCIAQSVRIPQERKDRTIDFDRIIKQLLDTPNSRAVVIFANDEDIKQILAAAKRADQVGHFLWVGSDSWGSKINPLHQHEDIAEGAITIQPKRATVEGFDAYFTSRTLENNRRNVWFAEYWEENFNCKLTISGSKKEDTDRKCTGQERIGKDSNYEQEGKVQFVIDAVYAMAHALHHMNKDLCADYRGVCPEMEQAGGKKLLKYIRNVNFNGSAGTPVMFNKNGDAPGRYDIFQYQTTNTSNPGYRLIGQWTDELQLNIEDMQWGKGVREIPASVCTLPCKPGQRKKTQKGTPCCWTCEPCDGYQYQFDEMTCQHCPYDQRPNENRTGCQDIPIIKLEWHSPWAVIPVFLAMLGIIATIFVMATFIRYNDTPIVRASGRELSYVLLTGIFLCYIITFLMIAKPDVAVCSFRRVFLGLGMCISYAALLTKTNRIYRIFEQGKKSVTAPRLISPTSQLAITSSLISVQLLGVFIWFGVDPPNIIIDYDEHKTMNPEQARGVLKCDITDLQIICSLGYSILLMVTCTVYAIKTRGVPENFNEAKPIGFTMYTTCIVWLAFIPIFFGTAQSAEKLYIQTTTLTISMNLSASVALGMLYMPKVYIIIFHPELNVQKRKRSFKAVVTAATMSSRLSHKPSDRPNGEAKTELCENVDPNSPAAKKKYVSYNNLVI
Metabotropic glutamate receptor 6, sequence (O15303 whole entry): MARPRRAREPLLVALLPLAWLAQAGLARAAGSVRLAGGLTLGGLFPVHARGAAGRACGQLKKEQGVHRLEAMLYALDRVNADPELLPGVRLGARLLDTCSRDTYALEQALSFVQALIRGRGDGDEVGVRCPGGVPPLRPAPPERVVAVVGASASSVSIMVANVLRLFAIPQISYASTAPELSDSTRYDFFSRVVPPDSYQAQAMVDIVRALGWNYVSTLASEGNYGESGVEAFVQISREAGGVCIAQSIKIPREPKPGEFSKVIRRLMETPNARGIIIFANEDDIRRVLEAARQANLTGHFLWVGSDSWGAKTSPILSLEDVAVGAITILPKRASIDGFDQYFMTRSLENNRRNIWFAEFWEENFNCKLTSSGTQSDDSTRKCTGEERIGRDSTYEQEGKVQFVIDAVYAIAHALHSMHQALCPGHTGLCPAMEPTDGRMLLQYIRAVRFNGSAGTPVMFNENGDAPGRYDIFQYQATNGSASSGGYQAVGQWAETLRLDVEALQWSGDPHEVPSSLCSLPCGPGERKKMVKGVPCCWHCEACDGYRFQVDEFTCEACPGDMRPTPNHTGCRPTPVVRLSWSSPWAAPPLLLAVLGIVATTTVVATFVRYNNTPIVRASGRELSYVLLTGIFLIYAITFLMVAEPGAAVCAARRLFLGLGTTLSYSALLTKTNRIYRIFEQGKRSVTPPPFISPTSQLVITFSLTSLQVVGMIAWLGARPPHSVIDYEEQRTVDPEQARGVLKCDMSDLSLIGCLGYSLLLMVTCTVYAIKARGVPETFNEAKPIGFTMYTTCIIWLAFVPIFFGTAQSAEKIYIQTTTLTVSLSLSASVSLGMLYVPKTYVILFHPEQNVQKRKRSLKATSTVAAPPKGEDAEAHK
Metabotropic glutamate receptor 2, sequence (Q14416 whole entry): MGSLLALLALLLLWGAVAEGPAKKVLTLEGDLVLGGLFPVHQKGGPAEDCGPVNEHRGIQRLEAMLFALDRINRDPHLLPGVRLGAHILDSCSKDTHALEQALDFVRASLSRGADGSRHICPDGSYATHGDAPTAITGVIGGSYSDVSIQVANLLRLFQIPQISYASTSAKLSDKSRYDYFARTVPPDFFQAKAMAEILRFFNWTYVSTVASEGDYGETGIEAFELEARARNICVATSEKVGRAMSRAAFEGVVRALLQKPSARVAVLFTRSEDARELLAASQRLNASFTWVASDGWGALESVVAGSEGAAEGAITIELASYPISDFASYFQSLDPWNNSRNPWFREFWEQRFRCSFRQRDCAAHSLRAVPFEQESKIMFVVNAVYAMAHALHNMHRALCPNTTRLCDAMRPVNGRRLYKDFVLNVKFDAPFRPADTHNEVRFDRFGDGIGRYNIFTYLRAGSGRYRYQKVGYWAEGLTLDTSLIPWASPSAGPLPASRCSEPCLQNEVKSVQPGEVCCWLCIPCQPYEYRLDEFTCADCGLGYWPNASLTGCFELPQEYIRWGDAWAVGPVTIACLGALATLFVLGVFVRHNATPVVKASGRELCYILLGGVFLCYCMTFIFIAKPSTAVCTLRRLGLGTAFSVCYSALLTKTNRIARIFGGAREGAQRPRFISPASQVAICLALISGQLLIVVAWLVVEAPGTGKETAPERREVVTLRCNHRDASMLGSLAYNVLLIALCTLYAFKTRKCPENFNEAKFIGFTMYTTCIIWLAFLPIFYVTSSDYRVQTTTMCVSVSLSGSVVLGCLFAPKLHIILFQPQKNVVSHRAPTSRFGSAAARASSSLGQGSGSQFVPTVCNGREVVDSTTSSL
Metabotropic glutamate receptor 7 (Mus musculus, UniProt Q68ED2), sequence (Q68ED2 whole entry): as the sequence (Q14831 whole entry) above, with R5G, A27V, S488T, A520P, D578N counted along it

`O=C(NCc1ccccc1F)C1c2ccccc2CC(=O)N1CC1CC1` (stereo not given): the EC50 in series [1] worked out at 0.0292 µM.
Regarding `COc1ccc(-c2c(C)nn3c(C(F)(F)F)cc(C)nc23)c(F)c1F`, the EC50 in series [2], in series [3], in series [5], in series [6] and in [7] was greater than 10 µM throughout. For the same compound, the IC50 in series [2], in [3], in series [5], in series [6] and in series [7] was greater than 10 µM throughout. In series [4], this compound returned a Kp at 1 h of 2.1.
Consider `CCc1nc2c(o1)CC(c1ccc(C)cc1C)CC2=O` (stereo not given), for which the IC50 in series [8] was determined as 0.063 µM.
As for `CNC(=O)N1CCCC(CN2CCC(OC(c3ccccc3)c3ccccc3)CC2)C1` (stereo not given), the EC50 in series [9] is 0.631 µM. Besides, the pEC50 in series [10] turned out to be 6.2.
As to `COC(=O)c1ccc(-n2c(C)cc(C(=O)CSc3ccc(NC(C)=O)cc3)c2C)cc1`, in [11], the EC50 was 0.93 µM.
As for `C[C@H](C(=O)NC1COc2ccccc2C1S(C)(=O)=O)c1ccc(F)cc1` (stereo not given in full), the EC50 in [12] is 0.0018 µM; in [13], 0.0069 µM.
Turning to `c1ccc(C(NCCNC(c2ccccc2)c2ccccc2)c2ccccc2)cc1`, the Emax in [14] is 62%. The compound also showed a logP in [15] of 5.9. In addition, the EC50 in series [16] was 0.158 µM.
`CNCC[C@H](NCC(=O)N1CCCc2ccccc21)c1ccccc1`: the logP in [15] is 3.
With `CCc1nn2c(C(F)(F)F)cc(C)nc2c1-c1cc(F)c(OC)cc1F`, the EC50 in series [17] turned out to be 2.1 µM.
`O=C(C[C@H](NCC1CC1)c1ccccc1)N1CCCOc2ccccc21`: the EC50 in series [18] was determined as 0.001 µM.
`C[C@H](C(=O)NC1COc2ccc(F)cc2C1O)c1ccccc1` (stereo not given in full) yielded an EC50 in [1] of 0.00121 µM.
